Assay results reported in PMC4887995, “Small molecule dual-inhibitors of TRPV4 and TRPA1 for attenuation of inflammation and pain” (Scientific Reports, 2016).

Experiments:
N2a cells = experiment: Cell viability (resazurin) in N2a cells; type: cell-based
Protocol: Figure 6 Cellular toxicity studies of compounds 16-8 and 16-19. N2a cells were subjected to increasing concentrations of compounds 16-8 and 16-19, resulting cell viability was analyzed for the next 48 h. (A) Time course of cell viability in the presence of various concentrations of 16-8. […] Representative result of 2 independent experiments.
N2a cells were cultured in 96 well plates for 24–48 h. Cell viability studies relied on metabolic capability monitored with the indicator dye resazurin. Its reduction to resorufin (indicated by color change dark blue to pink) was monitored over time. Changes in absorbance at λ = 570 nm were recorded using a microplate reader (Molecular Devices). […] Eight replicate cultures per experimental point were studied.

[1] = tested on: formalin-evoked trigeminal irritant pain (TRPA1 contribution); experiment: Trigeminal formalin irritant pain model, Trpv4-/- mice; type: in vivo, mouse; settings: 10 mg/kg i.p.; for late-phase pain behavior: vs vehicle
Protocol: Figure 7 16-8 and 16-19 effectively attenuate formalin-evoked trigeminal irritant pain. (A) Time-course of nocifensive behavior in WT mice following whisker-pad injection of 4% formalin. The mice were pre-injected (i.p., 10 mg/kg; 15 min before formalin) with GSK205, 16-8 or 16-19. Note effective reduction of nocifensive behavior in the late “neural” phase by compounds 16-8, 16-19, not by GSK205. (B) Cumulative response binned into 3 phases: acute phase (0–5 min), interphase (5–15 min), and late “neural” phase (15–45 min). […] (C) As in (A), but also including Trpv4^−/− mice. Compounds were applied i.p. 15 min before formalin challenge, at 10 mg/kg except established TRPA1 blocker, A967079 (25 mg/kg). Previously-established attenuated nocifensive behavior in early and late phase in Trpv4^−/− mice was recapped, which was reduced further by TRPA1 blocker, A967079. (D) As in (B), plus inclusion of Trpv4^−/− mice. Robust effects of TRPA1-blocker, A967079, were mimicked equi-potently by 16-8 and 16-19 for early phase, and by 16-8 for late phase, partially by 16-19 for late phase. (A,C) show averaged behavioral metrics per time-point, bars in (B,D) represent mean ± SEM; for (D) ^*P < 0.05; ^#P < 0.005, one-way ANOVA; for all panels n = 5–8 mice/group. […] We observed significant residual irritant-pain behavior in all phases of the formalin model in Trpv4^−/− mice, consistent with our previous report[13] (Fig. 7C,D). […] A reference TRPA1-inhibitory compound, A967079, was used at 25 mg/kg body weight as a positive control to inhibit TRPA1, based on a previous report. Reduction of pain behavior in Trpv4^−/− mice was striking, more than 50% in the late neural phase. […] We conclude that compound 16-8 also functions as a potent TRPA1-inhibitor in an in-vivo irritant pain model specifically designed to assess the contribution of TRPA1 to trigeminal irritant pain, and at least as potent as an established reference TRPA1-antagonistic compound. Implementation of this model was conducted as described previously. Video-taped nocifensive behavior was assessed by investigators blinded to genotype and treatment.

[2] = Preliminary in-vivo cardiac, renal and hepatic toxicity; parameters: species or system mouse; settings: 10 mg/kg i.p., vs vehicle; for heart rate (EKG): over 1 h at the 6 h time-point
Protocol: Mice were treated i.p. with compounds 16-8 and 16-19 (10 mg/kg). Hepatic and renal integrity were analyzed by alanine amino-transferase- and creatinine assays (Sigma), both relying on measurement of absorbance at λ = 570 nm in 96-well micro-titerplates. 8 technical replicates per animal were performed.
For heart rate assessment in mice treated with 16-8 and 16-19, animals were fitted with two electrodes, one to the ear, via clip, one to the rib-cage, using firm adhesive. Heart rate was monitored and analyzed using axoscope and clampfit 9.2 software (Molecular Devices)

TRPV3 = molecular target: T1, TRPV3 (Mus musculus, UniProt Q8K424); experiment: Ca++ imaging in N2a cells over-expressing TRPV3 (camphor); settings: 5 μM
T1 sequence (Q8K424 1-791): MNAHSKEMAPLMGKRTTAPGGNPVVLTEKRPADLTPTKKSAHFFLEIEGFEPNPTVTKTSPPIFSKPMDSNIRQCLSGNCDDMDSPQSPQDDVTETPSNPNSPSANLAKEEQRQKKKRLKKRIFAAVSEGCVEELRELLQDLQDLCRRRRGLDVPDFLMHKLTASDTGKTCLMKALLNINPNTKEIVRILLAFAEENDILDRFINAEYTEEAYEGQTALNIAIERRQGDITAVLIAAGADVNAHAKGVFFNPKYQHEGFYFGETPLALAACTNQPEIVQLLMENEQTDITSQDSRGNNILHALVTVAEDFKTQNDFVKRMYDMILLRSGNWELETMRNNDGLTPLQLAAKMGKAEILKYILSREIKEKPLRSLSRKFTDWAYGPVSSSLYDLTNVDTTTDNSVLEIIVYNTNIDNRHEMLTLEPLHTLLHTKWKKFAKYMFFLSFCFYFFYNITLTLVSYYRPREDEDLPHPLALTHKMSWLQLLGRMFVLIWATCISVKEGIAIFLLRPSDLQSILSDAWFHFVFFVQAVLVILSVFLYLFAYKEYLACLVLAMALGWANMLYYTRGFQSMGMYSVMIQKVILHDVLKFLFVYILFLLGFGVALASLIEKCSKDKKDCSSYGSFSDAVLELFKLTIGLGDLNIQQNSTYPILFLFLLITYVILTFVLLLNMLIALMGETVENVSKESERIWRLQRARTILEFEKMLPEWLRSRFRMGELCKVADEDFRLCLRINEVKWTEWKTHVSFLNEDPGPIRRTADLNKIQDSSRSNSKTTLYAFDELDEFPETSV
Protocol: (A) Specificity vs TRPV1-3. […] Mean±SEM is shown, ≥100 cells per condition. […] Plot generated from averaged peak ∆Ca^++ concentration of ≥75 cells per data-point.
N2a cells were used for directed expression of TRP ion channels as described previously[13]. […] All other channels were native channels from mouse, eGFP was co-transfected. […] Ca^++ imaging was performed as described previously[13][14][34].

TRPV4 = TRPV4 (Rattus norvegicus, UniProt Q9ERZ8); settings: for inhibition of TRPV4-mediated Ca++ influx / average peak ∆Ca++ concentration: 5 μM inhibitor, GSK101 5 nM; for average peak ∆Ca++ concentration: ≈100 cells, vehicle control 1156; for increased potency over GSK205: from TRPV4 IC50 values
TRPV4, sequence (Q9ERZ8 whole entry): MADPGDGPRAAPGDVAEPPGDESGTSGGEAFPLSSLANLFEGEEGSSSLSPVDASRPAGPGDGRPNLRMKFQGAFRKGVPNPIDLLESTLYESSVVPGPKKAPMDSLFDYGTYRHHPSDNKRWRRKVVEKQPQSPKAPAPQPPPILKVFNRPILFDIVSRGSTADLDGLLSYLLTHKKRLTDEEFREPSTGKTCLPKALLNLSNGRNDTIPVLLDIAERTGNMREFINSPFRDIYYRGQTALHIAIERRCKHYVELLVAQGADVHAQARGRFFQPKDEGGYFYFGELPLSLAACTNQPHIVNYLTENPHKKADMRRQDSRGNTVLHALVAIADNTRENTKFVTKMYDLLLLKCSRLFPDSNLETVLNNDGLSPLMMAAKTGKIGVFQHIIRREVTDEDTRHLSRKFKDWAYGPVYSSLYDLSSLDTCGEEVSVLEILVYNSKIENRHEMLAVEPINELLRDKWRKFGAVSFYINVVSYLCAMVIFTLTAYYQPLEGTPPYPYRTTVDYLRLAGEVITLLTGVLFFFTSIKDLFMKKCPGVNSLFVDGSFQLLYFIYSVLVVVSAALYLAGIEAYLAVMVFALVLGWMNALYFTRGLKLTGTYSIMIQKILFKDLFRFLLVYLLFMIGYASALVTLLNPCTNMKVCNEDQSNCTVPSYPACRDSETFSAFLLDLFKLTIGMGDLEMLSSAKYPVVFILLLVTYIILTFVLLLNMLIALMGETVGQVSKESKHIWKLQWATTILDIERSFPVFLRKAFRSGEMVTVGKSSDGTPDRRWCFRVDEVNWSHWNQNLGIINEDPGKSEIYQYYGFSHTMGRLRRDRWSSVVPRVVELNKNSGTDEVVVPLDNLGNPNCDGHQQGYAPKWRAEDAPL
Protocol: We assessed TRPV4-inhibitory potency of these synthetic compounds in a Ca^++ imaging assay in neuronal 2a (N2a) permanent tissue culture cells with directed expression of mammalian (rat) TRPV4. […] For first round assessment, all TRPV4-inhibitory compounds were used at 5 μM (Fig. 2A).
(A) Ca^++ imaging screening of all compounds in N2A cells with directed expression of TRPV4 (rat). […] The number on each bar corresponds to average peak ∆Ca^++ concentrations in ≈100 cells. Inset: micrographs of pseudo-colored cells before and after activation with 5nM GSK101, in addition note the corresponding time course of the averaged Ca^++ signal (fura-2 Ca^++ imaging). […] Plot generated from averaged peak ∆Ca^++ concentration of ≥75 cells per data-point.
TRPV4-eGFP from rat was used, previously found to respond to stimulation with GSK101 and hypotonicity in similar manner as native, non-fused TRPV4.

SMILES | cellular toxicity vs inhibitory potency against TRPV4/TRPA1, factor (N2a cells) | cell viability (N2a cells; increasing concentrations, followed for 48 h) | immediate-phase pain behavior [1] | late-phase pain behavior [1] | heart rate (EKG) [2] | serum alanine-amino-transferase (ALT) [2] | serum creatinin [2] | inhibition of TRPV3 (TRPV3) | IC50 (TRPV4) [nM] | inhibition of TRPV4-mediated Ca++ influx (TRPV4) | average peak ∆Ca++ concentration (TRPV4) [nM] | increased potency over GSK205 (TRPV4)
CN(CCc1ccc(Nc2nc(-c3ccccc3)cs2)cc1)Cc1ccccc1 [16-8] | 50–100 | clear reduction at 40 and 80 μM | virtually eliminated | strikingly reduced | no and did not detect differences and changes | not significantly elevated | not significantly elevated | did not inhibit | 450 ± 50 | virtually eliminated Ca^++ influx | 6 | approximately 10 fold
CCN(CCc1ccc(Nc2nc(-c3ccccc3)cs2)cc1)Cc1ccccc1 [16-19] | 50–100 | – | virtually eliminated | still significantly reduced | no and did not detect differences and changes | not significantly elevated | not significantly elevated | did not inhibit | – | virtually eliminated Ca^++ influx | 8 | ~8 fold
